Test results as given in US12384751B2, “Allosteric activators of the ALPHA1A-adrenergic receptor” (The Cleveland Clinic Foundation, priority 2019, dated 2025).
Like-named read-outs stand apart in the source and are kept apart here.

Tests used:
[1] = target: T1, α1A-AR (Homo sapiens, UniProt P35348); assay: Effect of compound on binding affinity of norepinephrine, epinephrine or other ligands at α1A-AR; design: expressed in transfected cells; host or cells: Rat-1 fibroblast cells
T1 sequence (P35348 1-466): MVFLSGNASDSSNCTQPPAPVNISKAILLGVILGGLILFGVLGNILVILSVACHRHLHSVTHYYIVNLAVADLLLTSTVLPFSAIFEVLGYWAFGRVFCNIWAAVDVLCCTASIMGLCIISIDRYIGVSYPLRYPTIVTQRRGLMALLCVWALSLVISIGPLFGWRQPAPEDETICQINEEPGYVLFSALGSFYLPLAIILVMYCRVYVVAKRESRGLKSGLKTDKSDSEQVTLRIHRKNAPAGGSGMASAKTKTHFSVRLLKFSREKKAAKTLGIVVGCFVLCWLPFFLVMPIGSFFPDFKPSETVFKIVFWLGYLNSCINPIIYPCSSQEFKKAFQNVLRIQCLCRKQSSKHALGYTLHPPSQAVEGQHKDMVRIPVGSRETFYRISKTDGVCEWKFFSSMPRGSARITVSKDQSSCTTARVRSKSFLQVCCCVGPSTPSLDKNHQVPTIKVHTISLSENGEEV
Experimental: Competition binding assays: These compounds were characterized for their ligand binding properties at the α1-AR subtypes. The binding affinities of Compounds 1-10 were determined in a series of competition-binding experiments with the α1-AR-selective antagonist [^125I]HEAT as the radioligand. Assays were performed in duplicate in HEM buffer, in a total assay volume of 1000 μl. Radioligand binding assays are composed of 5 ug of membranes, harvested from Rat-1 fibroblast cells expressing only one of the alpha1-AR subtypes, HEM buffer containing GTP (composed of 20 mM HEPES, pH 7.4, 1.4 mM EGTA, 12.5 mM MgCl2, pH to 7.4), 0.5 mM GTP, 35-80 pM^125I-HEAT, and various doses of norepinephrine or epinephrine and incubated with shaking at 25° C. for 1-2 hours. The above conditions will convert all the conformations of the receptor into a single low affinity site. To show both high and low affinity sites of the receptor (typically seen with GPCR agonists), the GTP is removed from the binding buffer. Nonspecific binding was determined experimentally in the presence of 10^−4 M phentolamine. Unbound radioactivity was separated from membrane-bound radioactivity by filtration through Whatman GF/C filter paper. Filters are washed five times with 5 ml of cold HEM buffer containing 0.5 mMGTP (if added to the binding buffer but not if it was not added to the binding buffer). Bound radioactivity remaining on the filters was counted on an ICN gamma counter operating at 79.8% efficiency. Data are analyzed using Graphpad Prism.
To determine the effects of compounds 1-10 on the binding affinity of norepinephrine or epinephrine, the competition binding assay was repeated as above with one dose of each individual compound (i.e. 10^−5M) added to each concentration point. Data are normalized to the norepinephrine or epinephrine binding curve alone without the addition of the compound to measure its effect on binding.

[2] = Pharmacokinetics in mice; format: in vivo, mouse; conditions: as determined by PK
Experimental: Pharmacokinetics: Mice are dosed for each identified candidate compound via oral gavage and accessed for a three-arm PK study in C57BL/6 mice at 0, 15 min, 30 min, 1 hr, 3 hr, 6 hr, 12 hr, 24 hr, and 48 hrs. Three groups of […] (N=3 per time point) are administered a PO dose of the identified compound of interest and following completion of the PK study, terminal blood plasma samples and brain tissue samples are collected at the time points to determine in vivo BBB penetrance. Parameters tested can include absorption, bioavailability, volume distribution, metabolism, Cmax, tmax, concentration, elimination rate and half-life, and clearance.

[3] = target: T1, α1A-AR; assay: Competition binding with [125I]HEAT at α1A-AR (Rat-1 fibroblast membranes); design: expressed in transfected cells; host or cells: Rat-1 fibroblast cells
Experimental: Competition binding assays: […] Assays were performed in duplicate in HEM buffer, in a total assay volume of 1000 μl. […] The above conditions will convert all the conformations of the receptor into a single low affinity site. To show both high and low affinity sites of the receptor (typically seen with GPCR agonists), the GTP is removed from the binding buffer. Nonspecific binding was determined experimentally in the presence of 10^−4 M phentolamine. Unbound radioactivity was separated from membrane-bound radioactivity by filtration through Whatman GF/C filter paper. Filters are washed five times with 5 ml of cold HEM buffer containing 0.5 mMGTP (if added to the binding buffer but not if it was not added to the binding buffer). Bound radioactivity remaining on the filters was counted on an ICN gamma counter operating at 79.8% efficiency. Data are analyzed using Graphpad Prism.

## CC(C)Cc1c(OCC2=NCCN2)cccc1N(C)S(C)(=O)=O [Compound 3, N-[3-(4,5-Dihydro-1H-imidazol-2-ylmethoxy)-2-isobutyl-phenyl]-N-methyl-methanesulfonamide]
[1]; 10^−5M (highest dose tested)
  effect on binding affinity of epinephrine at the α1A-AR: no effect
[1]; fixed dose of compound, 10^−5M to 10^−9M
  effect on binding affinity of norepinephrine at the α1A-AR: increasing the affinity of norepinephrine in a dose-specific manner
[2]
  CMax time point: approx. 3 hr
[3]
  binding behaviour against radiolabeled antagonist 125I-HEAT (full inhibition; competitive or allosteric): cannot fully inhibit
[3]; 0.5 mM GTP in binding buffer, competition with 125I-HEAT, read-out: affinity for the α1A-AR
  Ki: ~100 nM
[3]; GTP removed from binding buffer, read-out: high affinity site
  Ki: 0.001 nM
